{
  "source": "patent US4835185A",
  "about": "“Immunomodulator for improving commercial performance of domestic animals” (Iowa State University Research Foundation, Inc., priority 1987, dated 1989)",
  "key": {"[1]": {"experiment": "Rumen degradation of KIC (nylon bag technique)", "set-up": "species or system ruminants (rumen)", "description": "KIC pellets were made by mixing zein, ethanol, KIC, limestone, bentonite, and water in a ratio of […]. This mixture was extruded through a die of 15 mm directly into a vat of liquid nitrogen. The shattered pellets were spread out and allowed to air-dry for 2 days. The pellets were coated with zein (2% w/w) by spraying with a 30% zein solution made in 80% ethanol. The pellets again were air-dryed. Control pellets were made similarly to the KIC pellets except that the mixture was zein, limestone, ethanol, bentonite, and water in a ratio of 12:12:7.5:2.7:1. When KIC pellets were placed in the rumen (nylon bag technique), […] of the KIC added was present in the bags after 24 hr of rumen fermentation. It was estimated that uncoated KIC was 95% degraded in the rumen.\nTherefore, an attempt was made to protect KIC from ruminal degradation. KIC pellets, resistant to rumen degradation, were made by mixing zein, ethanol, KIC, limestone, bentonite and water in a ratio of 8.3:7.4:5.2:3:2:1. This mixture was extruded through a die of 15 mm directly into a vat of liquid nitrogen. The shattered pellets were spread out and allowed to air-dry for two days. The dried pellets were coated with zein (2% w/w) by spraying with a 30% zein solution made in 80% ethanol. The pellets again were air-dried. Control pellets were made similar to the KIC pellets except that the mixture was zein, limestone, ethanol, bentonite and water in a ratio of 12:12:7.5:2.7:1. When KIC pellets were placed in the rumen (nylon bag technique), 45% of the KIC added was present in the bags after 36 hr of rumen digestion."}, "[2]": {"set-up": "species or system pigs", "conditions": "pig, in vivo", "description": "In experiment 1, sixteen female pigs weighing 20-30 kg were used. Seven days before study, catheters were surgically placed in the right atria for blood sampling. Animals were housed in individual cages during the recovery period and had free access to water. Preceding the experiment, animals were fed twice daily a basal diet (2% of body weight per feeding). The basal diet consisted of a corn-soybean mix, adequate in all minerals and vitamins and containing approximately 14% crude protein. Test meals were formulated by additions to a basal diet. Five animals received the basal diet (control); five animals received the leucine meal, which had 2% leucine added to the basal diet; and six animals received the KIC diet, which had 2% KIC (sodium salt equivalent to 1.7% free acid) added to the basel diet. Studies were begun between 0800 and 0900 h after a 24-hr fast. Basal blood samples were taken at -20, -10 and -5 min. Animals were then offered 100 g of their respective test meal (time 0). Pigs were included in the study only if they consumed the entire meal in the first 20 min. Blood was sampled every 30 min from 120 to 240 min. Plasma was separated, Trasylol (FBA Pharmaceuticals, New York, NY) added (50 ul/ml), and plasma stored at -70 C. until analyzed.\nCortisol was measured by coated tube kits (Gammacoat, Travenol-Genetech Diagnostics, Cambridge, MA). Leucine and KIC were measured by high pressure liquid chromatography. Crystalline leucine was obtained from Sigma Chemical (St. Louis, MO) and KIC-sodium was obtained from SOBAC (Paris, France). Statistical analysis of the individual pig responses was conducted on mean plasma concentrations before the meal (-20 to 0 min) and after the meal (120 to 240 min). When the overall treatment F-value was significant, differences between individual treatments were determined using the pooled SEM and a T-test."}, "[3]": {"tested_on": "white blood cells", "experiment": "White blood cell number and differential, sheep (experiments 1 and 2)", "assay_type": "in vivo, lambs (sheep)", "description": "A study was conducted to determine if KIC administration can alter white blood cell function, specifically T lymphocyte function, in growing sheep and cattle. Eighteen medium-framed crossbred male lambs were used in experiment 1. Lambs were randomly assigned to either a control diet (n=10) or a diet supplemented with 1% KIC (n=8). Animals were fed ad libitum in individual cages. At 100 and 108 days of treatment, 50-ml blood samples were collected for lymphocyte and neutrophil function tests.\nIn experiment 2, 19 intact crossbred male lambs were randomly assigned to either a saline treatment group (n=9) or a KIC treatment group (n=10). Control lambs were injected with 50 ml of a saline solution, and KIC treated lambs were injected with 50 ml of a 5% solution of KIC (sodium salt) daily (~2.5 g KIC/day). All injections were made intraperitoneally in the right posterior abdominal region after disinfection of the area. At day 60 and day 66 of treatment, blood was collected for lymphocyte and neutrophil function tests.\nSheep in experiments 1 and 2 were fed diets based on a mixture of 48% corn, 5% molasses, 20% alfalfa meal, 0.8% limestone, 0.6% salt-mineral-vitamin mix and ~25% of a protein supplement (either soybean meal, corn gluten meal, or corn gluten feed). The diets were isonitrogenous and analyzed to be ~20% crude protein and 89% dry matter. The KIC diet consisted of the basal diet to which was added 1% calcium-KIC, whereas the control diet was the basal diet plus 0.25% calcium carbonate.\nBlood was collected by jugular venapuncture into acid-citrate-dextrose anticoagulant. Lymphocytes and neutrophils were isolated, and lymphocyte blastogenesis and neutrophil function evaluated. KIC was obtained from SOBAC, Paris, France. Zein was purchased from Freeman Industries, Tuckahoe, NY. Each experiment was statistically analyzed by analysis of variance. In sheep experiments, individual animals were the experimental units, whereas pen means were analyzed in the cattle experiment.\n^2 Total white blood cell number (WBC) is the cells per mm^3."}},
  "note": "Read-outs that look alike come from different tables or passages of the source.",
  "data": [
    {"smiles": "CC(C)CC(=O)C(=O)O", "note": "[KIC, alpha-ketoisocaproate]", "values": [
      {"measurement": "degraded", "setting": "[1]; \"as much as\", unprotected, read-out: KIC that may be lost by rumen destruction", "result": "90 to 95", "unit": "%"},
      {"measurement": "degraded", "setting": "[1]; estimated, Example IV, read-out: uncoated KIC degraded in the rumen", "result": 95, "unit": "%"},
      {"measurement": "degraded", "setting": "[1]; preliminary experiments, Example VI, read-out: uncoated KIC degraded in the rumen", "result": 95, "unit": "%"},
      {"measurement": "Plasma KIC, Change", "setting": "[2]", "result": 56, "unit": "µM"},
      {"measurement": "Plasma leucine, Change", "setting": "[2]", "result": 182, "unit": "µM"},
      {"measurement": "plasma leucine concentration", "setting": "[2]", "result": "doubling"},
      {"measurement": "Plasma KIC, Post", "setting": "[2]; 240 min", "result": 102, "unit": "µM"},
      {"measurement": "Plasma leucine, Post", "setting": "[2]; 240 min", "result": 312, "unit": "µM"},
      {"measurement": "% SEG", "setting": "[3]; Exp. 1, oral uncoated KIC 1% (control 38), p<.89", "result": "39% of Total WBC"},
      {"measurement": "% LYM", "setting": "[3]; Exp. 1, oral uncoated KIC 1% (control 61), p<.34", "result": "59% of Total WBC"},
      {"measurement": "% EOS", "setting": "[3]; Exp. 1, oral uncoated KIC 1% (control .7), p<.12", "result": "1.7% of Total WBC"},
      {"measurement": "% EOS", "setting": "[3]; Exp. 2, IP injected KIC (saline 3.4), p<.01", "result": "1.7% of Total WBC"},
      {"measurement": "% SEG", "setting": "[3]; Exp. 2, IP injected KIC (saline 41), p<.13", "result": "34% of Total WBC"},
      {"measurement": "% LYM", "setting": "[3]; Exp. 2, IP injected KIC (saline 48), p<.04", "result": "61% of Total WBC"}
    ]}
  ]
}
